Our source for the IC50, inhibition and Activity values is ChEMBL document CHEMBL4680139, “Antiproliferative activity of diarylnaphthylpyrrolidine derivative via dual target inhibition” (Eur J Med Chem, 2020).

≈ marks a conversion by molar mass, not a printed value.

As usually defined, the IC50 is the concentration that gives 50% inhibition. The term inhibition denotes the relative decrease from the control value, in per cent.

Assay [1] deals with MDA-MB-231. The assay is described as follows: Antiproliferative activity against human MDA-MB-231 cells assessed as inhibition of cell growth measured after 48 hrs by SRB assay. Format: functional, cell-based. To be noted: MDA-MB-231, 48 h. On the technique in general: In SRB staining, fixed cells bind dye roughly in proportion to their protein.
In another assay the test system is HCT-116. The assay is described as follows: Antiproliferative activity against human HCT-116 cells assessed as inhibition of cell growth measured after 48 hrs by SRB assay. Format: functional, cell-based. To be noted: HCT-116, 48 h.
For assay [2], the system named is MCF7. The assay is described as follows: Antiproliferative activity against human MCF-7 cells assessed as inhibition of cell growth measured after 48 hrs by SRB assay. Format: functional, cell-based. To be noted: MCF7, 48 h.
In another assay the test system is A549. As to the kind of experiment: Antiproliferative activity against human A549 cells assessed as inhibition of cell growth measured after 48 hrs by SRB assay. Format: functional, cell-based. The following applies: A549, 48 h.
A further assay has as its system THP-1. The assay is described as follows: Antiproliferative activity against human THP-1 cells assessed as inhibition of cell growth measured after 48 hrs by SRB assay. The following applies: THP-1, 48 h. Format: functional, cell-based.
A short description of assay [3]: Inhibition of bovine brain tubulin polymerisation measured by turbidometric method. Format: tissue-based, Bos taurus.
The test system of assay [4] is MCF7. The assay is described as follows: Antiproliferative activity against human MCF-7 cells assessed as inhibition of colony formation measured after 3 weeks by crystal violet staining based soft agar colony formation assay. Format: functional, cell-based. To be noted: MCF7, 504 h.
Assay [5] concerns the target DNA topoisomerase 2-alpha (Homo sapiens) (UniProt P11388). The assay is described as follows: Inhibition of DNA-topoisomerase 2 in human MCF7 cells using kinetoplast DNA as substrate at 120 uM measured by ELISA. Format: cell-based. Background: ELISA stands for enzyme-linked immunosorbent assay.
The test system of assay [6] is MDA-MB-231. The assay is described as follows: Induction of apoptosis in human MDA-MB-231 cells assessed as proportion of late apoptotic cells at 1 ug measured after 24 hrs by Annexin V-FITC/propidium iodide staining based flow cytometry (reference value: 0.5%). Format: functional. The following applies: dose 1 µg. A general note: A flow cytometer gives signals particle by particle.

The subject of assay [7] is MDA-MB-231. The assay is described as follows: Induction of apoptosis in human MDA-MB-231 cells assessed as proportion of necrotic cells at 1 ug measured after 24 hrs by Annexin V-FITC/propidium iodide staining based flow cytometry (reference value: 0.2%). Format: functional. To be noted: dose 1 µg.
The subject of assay [8] is MDA-MB-231. The assay is described as follows: Induction of apoptosis in human MDA-MB-231 cells assessed as proportion of early apoptotic cells at 1 ug measured after 24 hrs by Annexin V-FITC/propidium iodide staining based flow cytometry (reference value: 0.2%). Format: functional. To be noted: dose 1 µg.
Assay [9] concerns MDA-MB-231. As to the kind of experiment: Induction of apoptosis in human MDA-MB-231 cells assessed as proportion of viable cells at 1 ug measured after 24 hrs by Annexin V-FITC/propidium iodide staining based flow cytometry (reference value: 99%). Format: functional. To be noted: dose 1 µg.

DNA topoisomerase 2-alpha (Homo sapiens), sequence (P11388 whole entry): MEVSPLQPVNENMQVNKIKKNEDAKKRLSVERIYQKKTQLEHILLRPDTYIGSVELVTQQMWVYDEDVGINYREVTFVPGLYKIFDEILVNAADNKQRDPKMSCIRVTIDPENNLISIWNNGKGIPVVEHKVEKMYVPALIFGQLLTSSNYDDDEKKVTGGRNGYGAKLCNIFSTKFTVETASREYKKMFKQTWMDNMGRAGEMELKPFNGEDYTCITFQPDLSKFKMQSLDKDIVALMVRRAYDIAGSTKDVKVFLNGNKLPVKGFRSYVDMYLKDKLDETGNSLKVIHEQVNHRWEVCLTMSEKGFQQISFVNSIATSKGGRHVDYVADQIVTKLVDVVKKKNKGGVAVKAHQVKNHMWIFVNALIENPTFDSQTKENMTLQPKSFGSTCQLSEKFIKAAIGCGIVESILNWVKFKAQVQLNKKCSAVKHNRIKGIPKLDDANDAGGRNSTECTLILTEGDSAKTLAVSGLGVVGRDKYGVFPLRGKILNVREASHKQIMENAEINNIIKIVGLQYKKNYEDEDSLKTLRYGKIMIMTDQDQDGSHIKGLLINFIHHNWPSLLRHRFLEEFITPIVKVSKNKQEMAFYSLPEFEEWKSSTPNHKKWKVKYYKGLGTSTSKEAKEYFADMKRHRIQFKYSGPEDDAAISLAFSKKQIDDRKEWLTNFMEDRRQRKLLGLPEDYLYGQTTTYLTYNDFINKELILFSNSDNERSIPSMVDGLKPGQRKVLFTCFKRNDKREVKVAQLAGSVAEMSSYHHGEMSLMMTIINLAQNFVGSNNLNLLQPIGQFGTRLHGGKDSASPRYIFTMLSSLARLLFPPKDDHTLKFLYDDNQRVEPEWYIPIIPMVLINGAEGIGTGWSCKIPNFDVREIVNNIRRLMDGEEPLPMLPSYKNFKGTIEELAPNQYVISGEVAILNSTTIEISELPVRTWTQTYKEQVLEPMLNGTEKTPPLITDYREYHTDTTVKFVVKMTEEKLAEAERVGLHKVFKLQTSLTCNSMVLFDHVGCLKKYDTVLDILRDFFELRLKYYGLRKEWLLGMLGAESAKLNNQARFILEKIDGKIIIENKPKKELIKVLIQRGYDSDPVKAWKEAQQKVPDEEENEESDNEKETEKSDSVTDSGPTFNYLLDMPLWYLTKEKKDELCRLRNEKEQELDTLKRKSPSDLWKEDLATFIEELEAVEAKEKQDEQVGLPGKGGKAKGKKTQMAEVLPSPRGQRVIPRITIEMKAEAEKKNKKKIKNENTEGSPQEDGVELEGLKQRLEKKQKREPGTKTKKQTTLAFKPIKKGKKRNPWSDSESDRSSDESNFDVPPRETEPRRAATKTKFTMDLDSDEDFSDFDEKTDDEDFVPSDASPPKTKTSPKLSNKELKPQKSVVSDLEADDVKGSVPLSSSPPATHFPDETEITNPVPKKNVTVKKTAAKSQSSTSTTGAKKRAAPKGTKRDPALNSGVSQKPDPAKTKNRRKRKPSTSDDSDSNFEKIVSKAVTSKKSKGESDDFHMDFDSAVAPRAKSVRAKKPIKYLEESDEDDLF

With `C=C(c1ccc(OC)c(OC)c1OC)c1cccc2ccccc12`, the IC50 in the assay on MDA-MB-231 [1] (read-out: IC50) is 4.66 µM; in the assay on HCT-116 it was more than 20 µM; in the assay on MCF7 [2], 11.7 µM; in the assay on A549 it was 19.8 µM; in the assay with THP-1 it was 12.5 µM; in assay [3], 9.03 µM.
In the case of `CC/C(=C(\c1ccccc1)c1ccc(OCCN(C)C)cc1)c1ccccc1` [TAMOXIFEN], the IC50 is 1.31 µg/mL (≈ 3.53 µM) in the assay with MCF7 [4]; more than 20 µM in the assay on MDA-MB-231 [1] (read-out: IC50); 45 µM in the assay on HCT-116; 10.1 µM with A549; 11.9 µM in the assay with THP-1.
`COc1cc([C@@H]2c3cc4c(cc3[C@H](O)[C@H]3COC(=O)[C@H]23)OCO4)cc(OC)c1OC` [PODOFILOX]: the IC50 in the assay with MDA-MB-231 [1] (read-out: IC50) is 5.73 µM; in the assay with HCT-116 it was more than 20 µM; in the assay with MCF7 [2], 10.9 µM; in the assay on A549, 7.34 µM; in the assay with THP-1, 19.6 µM; in assay [3], 0.72 µM. In assay [5], this compound came in with an inhibition of 26.9%.
`COc1ccc(C(O)(Cc2ccccc2)c2cccc3ccccc23)c(OC)c1OC` (stereo unspecified): the IC50 is 4.78 µM with MDA-MB-231 [1] (read-out: IC50); more than 20 µM in the assay on HCT-116; 10.6 µM with MCF7 [2]; more than 20 µM in the assay on A549; 12.4 µM with THP-1; 6.02 µM in assay [3].
With `COc1cccc2c1C(=O)c1c(O)c3c(c(O)c1C2=O)C[C@@](O)(C(=O)CO)C[C@@H]3O[C@H]1C[C@H](N)[C@H](O)[C@H](C)O1` [DOXORUBICIN], the Activity in the assay on MDA-MB-231 [6] was found to be 6.2%; with MDA-MB-231 [7], 80.1%; in the assay on MDA-MB-231 [8] it was 0.1%; in the assay with MDA-MB-231 [9], 13.7%. The values for the IC50 in the assay with MDA-MB-231 [1] and with A549 were 5.12 µM and 0.63 µM, respectively.
Regarding `COc1ccc(C(O)(Cc2ccc(F)cc2)c2cccc3ccccc23)c(OC)c1OC` (stereo unspecified), the IC50 in the assay on MDA-MB-231 [1] (read-out: IC50) is 5.44 µM; with HCT-116, more than 20 µM; in the assay with MCF7 [2], 7.56 µM; in the assay with A549, 5.94 µM; with THP-1, 5.86 µM.
Taken in the same sequence, the figures for `COc1ccc(C(c2ccc(OCCN3CCCCC3)cc2)c2cccc3ccccc23)c(OC)c1OC` (stereo unspecified) were 15.2 µM, 11.9 µM, 15.4 µM, 15 µM and 16.6 µM.
In the same order, the values of `C=CCC(O)(c1ccc(OC)c(OC)c1OC)c1cccc2ccccc12` (stereo unspecified) are more than 20 µM, more than 20 µM, more than 20 µM, 10.7 µM and more than 20 µM.
For the compound `COC(=O)c1ccc(COC(c2ccc(OC)c(OC)c2OC)c2cccc3ccccc23)cc1` (stereo unspecified), the IC50 in the assay with MDA-MB-231 [1] (read-out: IC50) was more than 20 µM; in the assay with HCT-116, more than 20 µM; in the assay on MCF7 [2], more than 20 µM; in the assay with A549, 12 µM; in the assay with THP-1, more than 20 µM.
With `COc1ccc(C(OCCN(C)C)c2cccc3ccccc23)c(OC)c1OC` (stereo unspecified), the IC50 was more than 20 µM in the assay with MDA-MB-231 [1] (read-out: IC50); more than 20 µM in the assay with HCT-116; 11.1 µM in the assay on MCF7 [2]; 17.9 µM in the assay with A549; more than 20 µM in the assay on THP-1.
With `COc1ccc(C(c2ccccc2O)c2cccc3ccccc23)c(OC)c1OC` (stereo unspecified), the IC50 with MDA-MB-231 [1] (read-out: IC50) is 17.7 µM; with HCT-116, more than 20 µM; in the assay with MCF7 [2] it was 16.6 µM; with A549, 13.6 µM; in the assay on THP-1, more than 20 µM.
Take `COc1ccc(C(c2ccc(OCCO)cc2)c2cccc3ccccc23)c(OC)c1OC` (stereo unspecified): the IC50 in the assay on MDA-MB-231 [1] (read-out: IC50) was more than 20 µM; with HCT-116, more than 20 µM; in the assay with MCF7 [2] it was more than 20 µM; in the assay with A549, more than 20 µM; with THP-1, 16.6 µM.
On to `COc1ccc(C(O)(C/C=C\c2ccccc2)c2cccc3ccccc23)c(OC)c1OC` (stereo unspecified), for which the IC50 in the assay with MDA-MB-231 [1] (read-out: IC50) is 12.8 µM; in the assay on HCT-116 it was more than 20 µM; in the assay with MCF7 [2] it was 10.2 µM; in the assay with A549, 17.6 µM; in the assay on THP-1, 19.4 µM.
In the same order, the values of `COc1ccc(C(O)(Cc2ccc(C)cc2)c2cccc3ccccc23)c(OC)c1OC` (stereo unspecified) are more than 20 µM, more than 20 µM, more than 20 µM, 18.7 µM and more than 20 µM.
For `COc1ccc(/C(=N/O)c2cccc3ccccc23)c(OC)c1OC`, the IC50 in the assay on MDA-MB-231 [1] (read-out: IC50) is 2.5 µM; in the assay on HCT-116 it was 5.88 µM; in the assay on MCF7 [2], more than 20 µM; in the assay on A549 it was 13.1 µM; in the assay with THP-1 it was more than 20 µM; in assay [3], 5.58 µM.
Regarding `COc1ccc(/C(=N/OCC(=O)O)c2cccc3ccccc23)c(OC)c1OC`, the IC50 in the assay on MDA-MB-231 [1] (read-out: IC50) was more than 20 µM; in the assay on HCT-116, 4.98 µM; with MCF7 [2], more than 20 µM; in the assay on A549, 17.2 µM; in the assay on THP-1 it was more than 20 µM.
For `COc1ccc(C(c2ccc(O)cc2)c2cccc3ccccc23)c(OC)c1OC` (stereo unspecified), the IC50 is 17.4 µM in the assay on MDA-MB-231 [1] (read-out: IC50); 16 µM in the assay on HCT-116; 17.5 µM with MCF7 [2]; 16.4 µM in the assay on A549; 9.45 µM in the assay with THP-1.
Taken in the same sequence, the figures for `COc1ccc(C(OCc2ccc(C)cc2)c2cccc3ccccc23)c(OC)c1OC` (stereo unspecified) were more than 20 µM, more than 20 µM, 10.7 µM, 15.7 µM and more than 20 µM.
In the case of `CCOC(=O)CCO/N=C(/c1ccc(OC)c(OC)c1OC)c1cccc2ccccc12`, the IC50 was 15.2 µM in the assay with MDA-MB-231 [1] (read-out: IC50); 10 µM in the assay on HCT-116; more than 20 µM in the assay on MCF7 [2]; 19.6 µM with A549; more than 20 µM in the assay on THP-1.
As for `COc1ccc(/C(=C/c2ccc(C)cc2)c2cccc3ccccc23)c(OC)c1OC`, the IC50 with MDA-MB-231 [1] (read-out: IC50) is 8.31 µM; in the assay with HCT-116, more than 20 µM; in the assay on MCF7 [2], more than 20 µM; with A549, 19.6 µM; in the assay on THP-1, more than 20 µM.
